As a reminder, the IC50 is the concentration that inhibits the measured activity by half.

IC50 data for 18 molecules are collected here from patent US12371428B2 (Exelixis, Inc., priority 2019, dated 2025).

Format in all cases: cell-based
The target in assay [1] is KDR (phospho-KDR, VEGF165-stimulated HUVEC cells) (Homo sapiens (Human), UniProt P35968). As to the kind of experiment: KDR autophosphorylation ELISA in HUVEC cells (Example G). The note with it: cellular activity; KDR autophosphorylation ELISA in HUVEC cells. The method in brief:
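Inhibition of VEGF165-driven KDR autophosphorylation is measured in primary human umbilical vein endothelial cells after 24 h serum deprivation. Compound preincubation lasts 1 h before a 5-minute challenge with 100 ng/mL ligand, and phosphorylated receptor is then measured by ELISA in the lysates.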
A general note: In an ELISA, binding on a coated surface is turned into a signal by an enzyme label.

Assay [2] has as its target AXL (phospho-AXL, Gas6-stimulated A-172 glioblastoma cells) (Homo sapiens (Human), UniProt P30530). Kind of assay: AXL autophosphorylation ELISA in A-172 cells (Example E). The note with it: cellular activity; AXL autophosphorylation ELISA in A-172 cells; read-out: Axl IC50. The gist of the method:
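Phospho-AXL was measured by ELISA in lysates of Gas6-stimulated A-172 cells, starved 24 h in serum-free medium and exposed 1 h to an 8-point compound dilution at 0.3% DMSO.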

For assay [3], the target named is Mer (phospho-Mer, MERTK-transfected 293A cells) (Homo sapiens (Human), UniProt Q12866). As to the kind of experiment: Mer autophosphorylation ELISA in transient transfected 293A cells (Example H). The note with it: cellular activity; Mer autophosphorylation ELISA in transient transfected 293A cells. The gist of the method:
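IC50 from phospho-Mer ELISA of MERTK-transfected 293A cell lysates after 1 h treatment with serially diluted compound in serum-free medium.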

In assay [4] the target is Met (phospho-Met, HGF-stimulated PC-3 prostate cancer cells) (Homo sapiens (Human), UniProt P08581). As to the kind of experiment: Met autophosphorylation ELISA in PC-3 cells (Example F). The conditions noted are these: cellular activity; Met autophosphorylation ELISA in PC-3 cells; read-out: c-Met IC50. The gist of the method:
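Serum-starved (3 h) PC-3 cells were treated 1 h with compounds (8-point curve, 0.3% DMSO), then stimulated with 100 ng/mL human HGF for 10 min. Lysate phospho-Met (panTyr) was measured by sandwich ELISA, normalised to DMSO and reference-inhibitor controls. IC50 came from 4-parameter logistic fit.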

Sequence of Met (phospho-Met, HGF-stimulated PC-3 prostate cancer cells) (P08581 25-1390): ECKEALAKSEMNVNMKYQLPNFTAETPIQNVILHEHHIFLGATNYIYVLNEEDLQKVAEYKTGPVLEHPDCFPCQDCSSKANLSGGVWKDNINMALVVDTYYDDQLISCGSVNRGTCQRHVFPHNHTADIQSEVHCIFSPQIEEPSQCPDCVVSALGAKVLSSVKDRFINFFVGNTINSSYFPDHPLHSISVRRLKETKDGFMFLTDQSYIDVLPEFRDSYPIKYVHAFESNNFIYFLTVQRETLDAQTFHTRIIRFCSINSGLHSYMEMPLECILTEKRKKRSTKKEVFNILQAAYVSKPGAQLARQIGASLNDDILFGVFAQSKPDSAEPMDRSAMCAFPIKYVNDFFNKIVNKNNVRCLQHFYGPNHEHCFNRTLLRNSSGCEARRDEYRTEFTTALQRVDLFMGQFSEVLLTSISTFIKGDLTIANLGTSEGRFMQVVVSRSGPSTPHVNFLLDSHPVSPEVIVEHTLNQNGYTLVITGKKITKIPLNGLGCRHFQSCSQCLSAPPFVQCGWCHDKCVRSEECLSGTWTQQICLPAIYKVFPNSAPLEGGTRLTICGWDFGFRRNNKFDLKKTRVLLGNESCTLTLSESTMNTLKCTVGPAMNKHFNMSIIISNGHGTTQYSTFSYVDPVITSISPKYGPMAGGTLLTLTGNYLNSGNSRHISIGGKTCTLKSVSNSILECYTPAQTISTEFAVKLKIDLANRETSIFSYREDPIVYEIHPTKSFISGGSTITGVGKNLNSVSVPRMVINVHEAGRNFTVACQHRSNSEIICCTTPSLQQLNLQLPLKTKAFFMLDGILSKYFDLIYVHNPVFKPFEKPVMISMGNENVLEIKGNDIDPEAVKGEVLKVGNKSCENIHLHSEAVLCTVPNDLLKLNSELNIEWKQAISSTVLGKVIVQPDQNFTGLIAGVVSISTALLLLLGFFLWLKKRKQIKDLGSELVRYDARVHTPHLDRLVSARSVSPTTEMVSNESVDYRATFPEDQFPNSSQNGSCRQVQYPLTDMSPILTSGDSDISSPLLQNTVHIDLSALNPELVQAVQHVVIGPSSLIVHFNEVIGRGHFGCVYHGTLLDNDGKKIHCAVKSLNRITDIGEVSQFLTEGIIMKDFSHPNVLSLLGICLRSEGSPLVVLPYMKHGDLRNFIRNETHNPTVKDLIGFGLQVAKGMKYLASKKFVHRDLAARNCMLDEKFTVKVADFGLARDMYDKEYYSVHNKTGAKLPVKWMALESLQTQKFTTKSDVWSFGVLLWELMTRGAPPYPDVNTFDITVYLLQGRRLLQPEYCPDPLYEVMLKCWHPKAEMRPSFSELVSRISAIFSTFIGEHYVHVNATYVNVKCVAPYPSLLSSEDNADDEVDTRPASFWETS
Sequence of AXL (phospho-AXL, Gas6-stimulated A-172 glioblastoma cells) (P30530 26-894): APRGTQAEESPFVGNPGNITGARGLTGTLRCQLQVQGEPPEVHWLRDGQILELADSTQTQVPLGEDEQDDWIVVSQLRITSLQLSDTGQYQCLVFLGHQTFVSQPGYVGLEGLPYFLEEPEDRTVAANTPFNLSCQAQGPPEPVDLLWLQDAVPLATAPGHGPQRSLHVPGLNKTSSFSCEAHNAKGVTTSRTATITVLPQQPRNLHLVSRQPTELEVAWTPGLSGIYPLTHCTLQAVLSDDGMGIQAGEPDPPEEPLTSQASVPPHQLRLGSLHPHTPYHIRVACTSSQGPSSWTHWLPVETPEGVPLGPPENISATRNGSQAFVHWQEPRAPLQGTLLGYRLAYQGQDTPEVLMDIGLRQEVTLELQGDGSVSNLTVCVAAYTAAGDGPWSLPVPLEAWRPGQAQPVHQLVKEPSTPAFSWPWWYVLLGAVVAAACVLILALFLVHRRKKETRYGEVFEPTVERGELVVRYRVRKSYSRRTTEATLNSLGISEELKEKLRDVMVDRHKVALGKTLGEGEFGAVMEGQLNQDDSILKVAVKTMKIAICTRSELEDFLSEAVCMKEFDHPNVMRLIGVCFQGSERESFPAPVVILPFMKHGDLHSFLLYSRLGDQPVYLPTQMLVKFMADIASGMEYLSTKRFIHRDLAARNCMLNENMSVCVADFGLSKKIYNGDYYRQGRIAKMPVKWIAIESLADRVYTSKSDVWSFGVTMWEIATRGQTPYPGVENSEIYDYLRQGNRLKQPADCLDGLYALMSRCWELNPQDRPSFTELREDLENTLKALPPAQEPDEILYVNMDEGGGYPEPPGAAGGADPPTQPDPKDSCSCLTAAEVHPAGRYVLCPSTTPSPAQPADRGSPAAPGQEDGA
Sequence of Mer (phospho-Mer, MERTK-transfected 293A cells) (Q12866 21-999): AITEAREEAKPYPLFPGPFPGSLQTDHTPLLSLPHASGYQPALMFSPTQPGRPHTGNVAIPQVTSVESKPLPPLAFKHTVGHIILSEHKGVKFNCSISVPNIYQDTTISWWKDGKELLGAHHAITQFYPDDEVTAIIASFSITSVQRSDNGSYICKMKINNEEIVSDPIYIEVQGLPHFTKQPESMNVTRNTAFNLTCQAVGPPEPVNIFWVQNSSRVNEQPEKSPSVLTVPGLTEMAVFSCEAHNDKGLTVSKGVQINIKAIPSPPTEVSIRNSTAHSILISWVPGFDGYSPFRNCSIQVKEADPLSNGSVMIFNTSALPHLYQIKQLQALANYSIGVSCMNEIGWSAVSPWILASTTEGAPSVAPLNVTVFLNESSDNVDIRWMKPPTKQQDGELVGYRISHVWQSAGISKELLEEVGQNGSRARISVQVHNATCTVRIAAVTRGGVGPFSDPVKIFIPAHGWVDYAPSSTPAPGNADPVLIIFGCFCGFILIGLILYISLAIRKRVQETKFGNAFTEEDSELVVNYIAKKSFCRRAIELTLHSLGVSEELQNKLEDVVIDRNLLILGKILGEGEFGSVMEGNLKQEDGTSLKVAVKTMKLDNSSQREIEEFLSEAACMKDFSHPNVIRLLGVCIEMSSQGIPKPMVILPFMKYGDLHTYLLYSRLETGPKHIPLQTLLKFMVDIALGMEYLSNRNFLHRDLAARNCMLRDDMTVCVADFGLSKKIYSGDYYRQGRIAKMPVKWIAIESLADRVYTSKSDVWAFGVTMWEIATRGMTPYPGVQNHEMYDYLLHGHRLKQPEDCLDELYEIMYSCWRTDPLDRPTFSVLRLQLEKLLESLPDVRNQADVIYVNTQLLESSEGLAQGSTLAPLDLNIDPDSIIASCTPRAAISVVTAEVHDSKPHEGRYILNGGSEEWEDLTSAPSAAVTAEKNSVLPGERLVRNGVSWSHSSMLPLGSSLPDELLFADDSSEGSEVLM
Sequence of KDR (phospho-KDR, VEGF165-stimulated HUVEC cells) (P35968 20-1356): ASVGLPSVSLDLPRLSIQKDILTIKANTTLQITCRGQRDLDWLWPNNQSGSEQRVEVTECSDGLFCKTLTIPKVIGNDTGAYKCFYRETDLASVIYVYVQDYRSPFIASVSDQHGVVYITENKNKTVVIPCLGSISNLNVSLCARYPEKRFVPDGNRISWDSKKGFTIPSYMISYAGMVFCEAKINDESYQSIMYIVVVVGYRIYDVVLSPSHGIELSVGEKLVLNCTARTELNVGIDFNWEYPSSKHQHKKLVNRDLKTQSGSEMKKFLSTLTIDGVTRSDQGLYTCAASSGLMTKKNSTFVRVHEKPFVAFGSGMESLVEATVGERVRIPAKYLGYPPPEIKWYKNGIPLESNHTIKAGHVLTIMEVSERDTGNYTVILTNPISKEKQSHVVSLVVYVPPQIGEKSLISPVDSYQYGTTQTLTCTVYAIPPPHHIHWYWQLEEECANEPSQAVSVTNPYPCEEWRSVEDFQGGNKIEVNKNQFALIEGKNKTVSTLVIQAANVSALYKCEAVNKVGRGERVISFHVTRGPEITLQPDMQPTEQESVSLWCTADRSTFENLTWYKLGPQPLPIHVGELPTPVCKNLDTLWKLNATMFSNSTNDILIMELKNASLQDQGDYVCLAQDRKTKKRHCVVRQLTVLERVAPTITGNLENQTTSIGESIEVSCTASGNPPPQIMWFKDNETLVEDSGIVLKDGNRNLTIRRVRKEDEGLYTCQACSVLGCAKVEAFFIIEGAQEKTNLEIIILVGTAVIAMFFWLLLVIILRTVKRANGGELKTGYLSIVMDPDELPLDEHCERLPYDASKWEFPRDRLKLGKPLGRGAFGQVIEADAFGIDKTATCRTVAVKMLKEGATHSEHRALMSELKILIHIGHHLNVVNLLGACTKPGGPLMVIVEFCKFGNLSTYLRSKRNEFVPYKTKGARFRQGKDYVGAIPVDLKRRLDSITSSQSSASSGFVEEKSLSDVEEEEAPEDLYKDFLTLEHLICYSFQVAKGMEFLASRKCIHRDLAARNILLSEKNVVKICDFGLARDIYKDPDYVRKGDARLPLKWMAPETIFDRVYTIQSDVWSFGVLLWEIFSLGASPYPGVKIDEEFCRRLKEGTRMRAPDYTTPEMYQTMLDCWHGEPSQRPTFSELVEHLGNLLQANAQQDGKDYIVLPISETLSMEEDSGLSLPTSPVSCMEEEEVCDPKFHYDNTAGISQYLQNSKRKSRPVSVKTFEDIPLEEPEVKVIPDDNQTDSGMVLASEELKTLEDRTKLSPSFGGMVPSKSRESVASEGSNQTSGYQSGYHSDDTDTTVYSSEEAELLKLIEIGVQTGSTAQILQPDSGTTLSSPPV

As to `COc1ccc(-c2c(C)nc(C)c(C(=O)Nc3ccc(Oc4ccnc5cc(OC)cnc45)c(F)c3)c2O)c(F)c1` [Compound 691, N-[3-fluoro-4-[(7-methoxy-1,5-naphthyridin-4-yl)oxy]phenyl]-5-(2-fluoro-4-methoxyphenyl)-4-hydroxy-2,6-dimethylpyridine-3-carboxamide], the IC50 is less than 100 nM in assay [1], 100 to 300 nM in assay [2], less than 100 nM in assay [3] and less than 100 nM in assay [4].
With `COc1cnc2c(Oc3ccc(NC(=O)c4c(C)nc(C)c(-c5ccc(OC)c(C)c5)c4O)cc3F)ccnc2c1` [Compound 692, N-[3-fluoro-4-[(7-methoxy-1,5-naphthyridin-4-yl)oxy]phenyl]-4-hydroxy-5-(4-methoxy-3-methylphenyl)-2,6-dimethylpyridine-3-carboxamide], the IC50 was less than 100 nM in assay [1], 100 to 300 nM in assay [2], less than 100 nM in assay [3] and less than 100 nM in assay [4].
Take `COc1cnc2c(Oc3ccc(NC(=O)c4c(C)nc(C)c(-c5ccc(OC)c(F)c5)c4O)cc3F)ccnc2c1` [Compound 693, N-[3-fluoro-4-[(7-methoxy-1,5-naphthyridin-4-yl)oxy]phenyl]-5-(3-fluoro-4-methoxyphenyl)-4-hydroxy-2,6-dimethylpyridine-3-carboxamide]: the IC50 in assay [1] is less than 100 nM; in assay [2] it was more than 300 nM; in assay [3] it was less than 100 nM; in assay [4] it was 100 to 300 nM.
With `COc1cnc2c(Oc3ccc(NC(=O)c4c(C)nc(C)c(-c5ccc(S(C)(=O)=O)cc5)c4O)cc3F)ccnc2c1` [Compound 694, N-[3-fluoro-4-[(7-methoxy-1,5-naphthyridin-4-yl)oxy]phenyl]-4-hydroxy-2,6-dimethyl-5-(4-methylsulfonylphenyl)pyridine-3-carboxamide], the IC50 in assay [1] was more than 300 nM; in assay [2], more than 300 nM; in assay [3] it was less than 100 nM; in assay [4], 100 to 300 nM.
As to `COc1ccc(-c2c(C)nc(C)c(C(=O)Nc3ccc(Oc4ccnc5cc(OC)cnc45)c(F)c3)c2O)c(OC)c1` [Compound 695, 5-(2,4-dimethoxyphenyl)-N-[3-fluoro-4-[(7-methoxy-1,5-naphthyridin-4-yl)oxy]phenyl]-4-hydroxy-2,6-dimethylpyridine-3-carboxamide], the IC50 in assay [1] was less than 100 nM; in assay [2], more than 300 nM; in assay [3], less than 100 nM; in assay [4], less than 100 nM.
With `COc1ccc(-c2c(C)ncc(C(=O)Nc3ccc(Oc4ccnc5cc(OC)cnc45)c(F)c3)c2O)c(OC)c1` [Compound 696, 5-(2,4-dimethoxyphenyl)-N-[3-fluoro-4-[(7-methoxy-1,5-naphthyridin-4-yl)oxy]phenyl]-4-hydroxy-6-methylpyridine-3-carboxamide], the half-inhibitory concentration (IC50) in assay [1] was less than 100 nM; in assay [2], more than 300 nM; in assay [3], less than 100 nM; in assay [4] it was 100 to 300 nM.
With `COc1cnc2c(Oc3ccc(NC(=O)c4cnc(C)c(-c5ccc(S(C)(=O)=O)cc5)c4O)cc3F)ccnc2c1` [Compound 697, N-[3-fluoro-4-[(7-methoxy-1,5-naphthyridin-4-yl)oxy]phenyl]-4-hydroxy-6-methyl-5-(4-methylsulfonylphenyl)pyridine-3-carboxamide], the IC50 in assay [1] was more than 300 nM; in assay [2] it was more than 300 nM; in assay [3] it was less than 100 nM; in assay [4] it was 100 to 300 nM.
For the molecule `COc1cnc2c(Oc3ccc(NC(=O)c4cnc(C)c(-c5ccc(OC)c(F)c5)c4O)cc3F)ccnc2c1` [Compound 698, N-[3-fluoro-4-[(7-methoxy-1,5-naphthyridin-4-yl)oxy]phenyl]-5-(3-fluoro-4-methoxyphenyl)-4-hydroxy-6-methylpyridine-3-carboxamide], the IC50 in assay [1] is less than 100 nM; in assay [2], more than 300 nM; in assay [3], less than 100 nM; in assay [4], more than 300 nM.
For `COc1cnc2c(Oc3ccc(NC(=O)c4cnc(C)c(-c5ccc(OC)c(C)c5)c4O)cc3F)ccnc2c1` [Compound 699, N-[3-fluoro-4-[(7-methoxy-1,5-naphthyridin-4-yl)oxy]phenyl]-4-hydroxy-5-(4-methoxy-3-methylphenyl)-6-methylpyridine-3-carboxamide], the IC50 in assay [1] was less than 100 nM; in assay [2], more than 300 nM; in assay [3] it was less than 100 nM; in assay [4] it was 100 to 300 nM.
Consider `COc1ccc(-c2c(C)ncc(C(=O)Nc3ccc(Oc4ccnc5cc(OC)cnc45)c(F)c3)c2O)c(F)c1` [Compound 700, N-[3-fluoro-4-[(7-methoxy-1,5-naphthyridin-4-yl)oxy]phenyl]-5-(2-fluoro-4-methoxyphenyl)-4-hydroxy-6-methylpyridine-3-carboxamide], for which the IC50 was less than 100 nM in assay [1], more than 300 nM in assay [2], less than 100 nM in assay [3] and less than 100 nM in assay [4].
Regarding `COc1cnc2c(Oc3ccc(NC(=O)c4cnc(C)c(-c5ccc(F)c(C)c5)c4O)cc3F)ccnc2c1` [Compound 701, N-[3-fluoro-4-[(7-methoxy-1,5-naphthyridin-4-yl)oxy]phenyl]-5-(4-fluoro-3-methylphenyl)-4-hydroxy-6-methylpyridine-3-carboxamide], the IC50 in assay [1], in assay [2], in assay [3] and in assay [4] was less than 100 nM each time.
`COc1cc2nccc(Oc3ccc(NC(=O)c4c(C)n(CC(F)F)cc(-c5ccc(F)cc5)c4=O)cc3F)c2nc1OC` [Compound 702, 1-(2,2-difluoroethyl)-N-[4-[(6,7-dimethoxy-1,5-naphthyridin-4-yl)oxy]-3-fluorophenyl]-5-(4-fluorophenyl)-2-methyl-4-oxopyridine-3-carboxamide]: the IC50 in assay [1] was 100 to 300 nM; in assay [2], less than 100 nM; in assay [3], less than 100 nM; in assay [4], less than 100 nM.
For `COCCOc1cc2nccc(Oc3ccc(NC(=O)c4c(C)ccn(-c5ccc(F)cc5)c4=O)cc3F)c2nc1OC` [Compound 703, N-[3-fluoro-4-[[6-methoxy-7-(2-methoxyethoxy)-1,5-naphthyridin-4-yl]oxy]phenyl]-1-(4-fluorophenyl)-4-methyl-2-oxopyridine-3-carboxamide], the IC50 in assay [1], in assay [2], in assay [3] and in assay [4] was less than 100 nM in each case.
Consider `COCCOc1cc2nccc(Oc3ccc(NC(=O)c4c(C)ccn(-c5ccc(F)cc5)c4=O)cc3)c2nc1OC` [Compound 704, 1-(4-fluorophenyl)-N-[4-[[6-methoxy-7-(2-methoxyethoxy)-1,5-naphthyridin-4-yl]oxy]phenyl]-4-methyl-2-oxopyridine-3-carboxamide], for which the IC50 in assay [1], in assay [2], in assay [3] and in assay [4] was less than 100 nM throughout.
For the molecule `COc1cc2nccc(Oc3ccc(NC(=O)c4nn(C(F)F)c(C)c(-c5ccc(F)cc5)c4=O)cc3F)c2nc1OC` [Compound 721, 1-(difluoromethyl)-N-[4-[(6,7-dimethoxy-1,5-naphthyridin-4-yl)oxy]-3-fluorophenyl]-5-(4-fluorophenyl)-6-methyl-4-oxopyridazine-3-carboxamide], the IC50 in assay [1] is 100 to 300 nM; in assay [2] it was less than 100 nM; in assay [3], less than 100 nM; in assay [4], less than 100 nM.
`COc1cc2nccc(Oc3ccc(NC(=O)c4cn(CC(F)F)c(C)c(-c5ccc(F)cc5C)c4=O)cc3)c2nc1OC` [Compound 722, 1-(2,2-difluoroethyl)-N-[4-[(6,7-dimethoxy-1,5-naphthyridin-4-yl)oxy]phenyl]-5-(4-fluoro-2-methylphenyl)-6-methyl-4-oxopyridine-3-carboxamide]: the IC50 in assay [1] was more than 300 nM; in assay [2], less than 100 nM; in assay [3], less than 100 nM; in assay [4] it was less than 100 nM.
Regarding `COc1cnc2c(Oc3ccc(NC(=O)c4cn(CC(F)F)c(C)c(-c5ccc(F)cc5C)c4=O)cc3F)ccnc2c1` [Compound 723, 1-(2,2-difluoroethyl)-N-[3-fluoro-4-[(7-methoxy-1,5-naphthyridin-4-yl)oxy]phenyl]-5-(4-fluoro-2-methylphenyl)-6-methyl-4-oxopyridine-3-carboxamide], the IC50 in assay [1] was more than 300 nM; in assay [2], less than 100 nM; in assay [3], less than 100 nM; in assay [4] it was less than 100 nM.
With `COCCOc1cnc2c(Oc3ccc(NC(=O)c4c(C)nc(C)c(-c5ccc(F)cc5C)c4O)cc3)ccnc2c1` [Compound 724, 5-(4-fluoro-2-methylphenyl)-4-hydroxy-N-[4-[[7-(2-methoxyethoxy)-1,5-naphthyridin-4-yl]oxy]phenyl]-2,6-dimethylpyridine-3-carboxamide], the IC50 in assay [1], in assay [2], in assay [3] and in assay [4] was less than 100 nM in each case.
